Reference: patent publication US8367873B2, “Phenyl-substituted bicyclooctane-1,3-dione derivatives” (Bayer Cropscience AG, priority 2008, dated 2013)

Experiments:
Type in all cases: in vivo
[1] = system: Alopecurus myosuroides; test: Herbicidal post-emergence action; conditions: post-emergence method, 80 g/ha
Protocol: (§1) Seeds of monocotylidonous and dicotylidonous weed and crop plants are placed in sandy loam in wood fibre pots, covered with soil and cultivated in a greenhouse under good growth conditions. Two to three weeks after sowing, the test plants are treated at the one-leaf stage. The test compounds, formulated as wettable powders (WP), are then with a water application rate of 600 l/ha (converted), with 0.2% of wetting agent added, sprayed onto the green parts of the plants in different amounts. After the test plants have been kept in the greenhouse under optimum growth conditions for about three weeks, the effect of the preparations is assessed visually in comparison to untreated controls (herbicidal effect in percent: 100% effect=the plants have died, 0% effect=like control plants).

[2] = system: Echinocloa crus-galli; test: Herbicidal post-emergence action; conditions: post-emergence method, 80 g/ha
Protocol: as §1

[3] = system: Lolium multiflorum; test: Herbicidal post-emergence action; conditions: post-emergence method, 80 g/ha
Protocol: as §1

[4] = system: Setaria viridis; test: Herbicidal post-emergence action; conditions: post-emergence method, 80 g/ha
Protocol: as §1

[5] = system: monocotylidonous and dicotylidonous weed and crop plants; test: Herbicidal pre-emergence action (other test plants); conditions: pre-emergence method, 80 g/ha, greenhouse, visual assessment vs untreated controls
Excerpt: (§2) Seeds of monocotylidonous and dicotylidonous weed and crop plants are placed in sandy loam in wood fibre pots and covered with soil. The test compounds, formulated in the form of wettable powders (WP), are then, as an aqueous suspension with a water application rate of 600 l/ha (converted), with 0.2% of wetting agent added, applied to the surface of the covering soil in different amounts.
(§3) After the treatment, the pots are placed in a greenhouse and kept under good growth conditions for the test plants. The visual assessment of the emergence damage on the test plants is carried out after a trial period of three weeks by comparison with the untreated controls (herbicidal effect in percent: 100% effect=the plants have died, 0% effect=like control plants).

[6] = system: monocotylidonous and dicotylidonous weed and crop plants; test: Herbicidal post-emergence action (other test plants); conditions: post-emergence method, 80 g/ha
Protocol: as §1

[7] = system: Alopecurus myosuroides; test: Herbicidal pre-emergence action; conditions: pre-emergence method, 80 g/ha, greenhouse, visual assessment vs untreated controls
Excerpt: as §2, §3

[8] = system: Echinocloa crus-galli; test: Herbicidal pre-emergence action; conditions: pre-emergence method, 80 g/ha, greenhouse, visual assessment vs untreated controls
Excerpt: as §2, §3

[9] = system: Lolium multiflorum; test: Herbicidal pre-emergence action; conditions: pre-emergence method, 80 g/ha, greenhouse, visual assessment vs untreated controls
Excerpt: as §2, §3

[10] = system: Setaria viridis; test: Herbicidal pre-emergence action; conditions: pre-emergence method, 80 g/ha, greenhouse, visual assessment vs untreated controls
Excerpt: as §2, §3

Cc1cc(C)c(C2=C(OC(=O)C(C)(C)C)C3CC4(CC3C2=O)OCCCCO4)c(C)c1 (stereo not shown) [I-b-40]
herbicidal effect against ALOMY (Alopecurus myosuroides) [1]: 40% | herbicidal effect against ECHCG (Echinochloa crus-galli) [2]: 90% | herbicidal effect against LOLMU (Lolium multiflorum) [3]: 100% | herbicidal effect against SETVI (Setaria viridis) [4]: 80% | herbicidal effect AVEFA [5]: 50% | herbicidal effect against AVEFA (Avena fatua) [6]: 20% | herbicidal effect ALOMY [7]: 90% | herbicidal effect ECHCG [8]: 50% | herbicidal effect LOLMU [9]: 100% | herbicidal effect SETVI [10]: 30%

C#CCON=C1CC2C(=O)C(c3c(CC)cc(C)cc3CC)=C(OC(=O)OCC)C2C1 (stereo not shown) [I-c-41]
herbicidal effect against ALOMY (Alopecurus myosuroides) [1]: 100% | herbicidal effect against ECHCG (Echinochloa crus-galli) [2]: 100% | herbicidal effect against LOLMU (Lolium multiflorum) [3]: 100% | herbicidal effect against SETVI (Setaria viridis) [4]: 20% | herbicidal effect AVEFA [5]: 40% | herbicidal effect against AVEFA (Avena fatua) [6]: 80% | herbicidal effect ALOMY [7]: 90% | herbicidal effect ECHCG [8]: 60% | herbicidal effect LOLMU [9]: 100% | herbicidal effect SETVI [10]: 40%

CCc1cc(C)cc(C)c1C1=C(OC(=O)C(C)C)C2CC3(CC2C1=O)OCCCCO3 (stereo not shown) [I-b-77]
herbicidal effect against ALOMY (Alopecurus myosuroides) [1]: 100% | herbicidal effect against ECHCG (Echinochloa crus-galli) [2]: 100% | herbicidal effect against LOLMU (Lolium multiflorum) [3]: 100% | herbicidal effect against SETVI (Setaria viridis) [4]: 90% | herbicidal effect AVEFA [5]: 40% | herbicidal effect against AVEFA (Avena fatua) [6]: 60% | herbicidal effect ALOMY [7]: 60% | herbicidal effect LOLMU [9]: 90% | herbicidal effect SETVI [10]: 60%

CCc1cc(C)cc(C)c1C1=C(OC(C)=O)C2CC3(COC(C)(C)O3)CC2C1=O (stereo not shown) [I-b-66]
herbicidal effect against ALOMY (Alopecurus myosuroides) [1]: 100% | herbicidal effect against ECHCG (Echinochloa crus-galli) [2]: 100% | herbicidal effect against LOLMU (Lolium multiflorum) [3]: 100% | herbicidal effect against SETVI (Setaria viridis) [4]: 80% | herbicidal effect AVEFA [5]: 80% | herbicidal effect against AVEFA (Avena fatua) [6]: 90% | herbicidal effect ALOMY [7]: 80% | herbicidal effect ECHCG [8]: 100% | herbicidal effect LOLMU [9]: 100% | herbicidal effect SETVI [10]: 80%

CCc1cc(C)cc(CC)c1C1=C(OC(=O)C(C)C)C2CC3(CC2C1=O)OCC(OCc1ccccc1)CO3 (stereo not shown) [I-b-17]
herbicidal effect against ALOMY (Alopecurus myosuroides) [1]: 90% | herbicidal effect against ECHCG (Echinochloa crus-galli) [2]: 100% | herbicidal effect against LOLMU (Lolium multiflorum) [3]: 100% | herbicidal effect against SETVI (Setaria viridis) [4]: 90% | herbicidal effect AVEFA [5]: 80% | herbicidal effect against AVEFA (Avena fatua) [6]: 90% | herbicidal effect ALOMY [7]: 90% | herbicidal effect ECHCG [8]: 100% | herbicidal effect LOLMU [9]: 100% | herbicidal effect SETVI [10]: 90%

CCc1cc(C)cc(CC)c1C1=C(OC(=O)C(C)C)C2CC3(CC2C1=O)OCC(C)CO3 (stereo not shown) [I-b-14]
herbicidal effect against ALOMY (Alopecurus myosuroides) [1]: 100% | herbicidal effect against ECHCG (Echinochloa crus-galli) [2]: 100% | herbicidal effect against LOLMU (Lolium multiflorum) [3]: 100% | herbicidal effect against SETVI (Setaria viridis) [4]: 100% | herbicidal effect AVEFA [5]: 70% | herbicidal effect against AVEFA (Avena fatua) [6]: 100% | herbicidal effect ALOMY [7]: 100% | herbicidal effect ECHCG [8]: 100% | herbicidal effect LOLMU [9]: 100% | herbicidal effect SETVI [10]: 100%

CCOC(=O)OC1=C(c2c(CC)cc(C)cc2CC)C(=O)C2CC3(CC12)OCC(C)(C)CO3 (racemic) [I-c-6]
herbicidal effect AVEFA [5]: 10% | herbicidal effect ALOMY [7]: 50% | herbicidal effect ECHCG [8]: 90% | herbicidal effect LOLMU [9]: 80% | herbicidal effect SETVI [10]: 60%

C=C1CC2C(=O)C(c3c(C)cc(C)cc3OC)=C([O-])C2C1.[Na+] (stereo not shown) [I-f-22]
herbicidal effect against ALOMY (Alopecurus myosuroides) [1]: 30% | herbicidal effect against ECHCG (Echinochloa crus-galli) [2]: 100% | herbicidal effect against LOLMU (Lolium multiflorum) [3]: 80% | herbicidal effect against SETVI (Setaria viridis) [4]: 100% | herbicidal effect AVEFA [5]: 70% | herbicidal effect against AVEFA (Avena fatua) [6]: 40% | herbicidal effect ALOMY [7]: 80% | herbicidal effect LOLMU [9]: 80% | herbicidal effect SETVI [10]: 100%

CCc1cc(C)cc(CC)c1C1=C(OC(=O)C(C)C)C2CC3(CC2C1=O)OCCCO3 (stereo not shown) [I-b-29]
herbicidal effect against ALOMY (Alopecurus myosuroides) [1]: 100% | herbicidal effect against ECHCG (Echinochloa crus-galli) [2]: 100% | herbicidal effect against LOLMU (Lolium multiflorum) [3]: 100% | herbicidal effect against SETVI (Setaria viridis) [4]: 100% | herbicidal effect AVEFA [5]: 70% | herbicidal effect against AVEFA (Avena fatua) [6]: 90% | herbicidal effect ECHCG [8]: 100% | herbicidal effect LOLMU [9]: 100% | herbicidal effect SETVI [10]: 80%

CCc1cc(C)cc(CC)c1C1=C(O)[C@H]2CC(=NOC3CC3)C[C@H]2C1=O (relative stereo) [I-a-30]
herbicidal effect against ALOMY (Alopecurus myosuroides) [1]: 90% | herbicidal effect against ECHCG (Echinochloa crus-galli) [2]: 100% | herbicidal effect against LOLMU (Lolium multiflorum) [3]: 90% | herbicidal effect against SETVI (Setaria viridis) [4]: 50% | herbicidal effect AVEFA [5]: 0% | herbicidal effect against AVEFA (Avena fatua) [6]: 0% | herbicidal effect ALOMY [7]: 80% | herbicidal effect LOLMU [9]: 70% | herbicidal effect SETVI [10]: 70%

CCOC(=O)OC1=C(c2c(CC)cc(C)cc2CC)C(=O)C2CC3(CC12)OCC(OCc1ccccc1)CO3 (stereo not shown) [I-c-28]
herbicidal effect against ALOMY (Alopecurus myosuroides) [1]: 100% | herbicidal effect against ECHCG (Echinochloa crus-galli) [2]: 100% | herbicidal effect against LOLMU (Lolium multiflorum) [3]: 100% | herbicidal effect against SETVI (Setaria viridis) [4]: 100% | herbicidal effect AVEFA [5]: 60% | herbicidal effect against AVEFA (Avena fatua) [6]: 100% | herbicidal effect ALOMY [7]: 90% | herbicidal effect ECHCG [8]: 100% | herbicidal effect SETVI [10]: 50%

CCOC(=O)OC1=C(c2c(C)cc(C)cc2CC)C(=O)C2CC3(CC12)OCCO3 (racemic) [I-c-71]
herbicidal effect against ALOMY (Alopecurus myosuroides) [1]: 80% | herbicidal effect against LOLMU (Lolium multiflorum) [3]: 100% | herbicidal effect against SETVI (Setaria viridis) [4]: 100% | herbicidal effect AVEFA [5]: 70% | herbicidal effect against AVEFA (Avena fatua) [6]: 90% | herbicidal effect ALOMY [7]: 70% | herbicidal effect ECHCG [8]: 100% | herbicidal effect LOLMU [9]: 100% | herbicidal effect SETVI [10]: 90%

Cc1cc(C)c(C2=C(OC(=O)C(C)C)C3CC4(CC3C2=O)OCC=CCO4)c(C)c1 (stereo not shown) [I-b-42]
herbicidal effect against ALOMY (Alopecurus myosuroides) [1]: 100% | herbicidal effect against ECHCG (Echinochloa crus-galli) [2]: 100% | herbicidal effect against LOLMU (Lolium multiflorum) [3]: 100% | herbicidal effect against SETVI (Setaria viridis) [4]: 100% | herbicidal effect AVEFA [5]: 70% | herbicidal effect against AVEFA (Avena fatua) [6]: 80% | herbicidal effect ECHCG [8]: 60% | herbicidal effect LOLMU [9]: 100% | herbicidal effect SETVI [10]: 90%

CCc1cc(C)cc(CC)c1C1=C(OC(=O)C(C)C)C2CC3(CC2C1=O)OC(C)CC(C)O3 (stereo not shown) [I-b-15]
herbicidal effect against ALOMY (Alopecurus myosuroides) [1]: 100% | herbicidal effect against ECHCG (Echinochloa crus-galli) [2]: 100% | herbicidal effect against LOLMU (Lolium multiflorum) [3]: 100% | herbicidal effect against SETVI (Setaria viridis) [4]: 100% | herbicidal effect AVEFA [5]: 50% | herbicidal effect against AVEFA (Avena fatua) [6]: 90% | herbicidal effect ALOMY [7]: 80% | herbicidal effect ECHCG [8]: 100% | herbicidal effect LOLMU [9]: 80%

CCc1cc(C)cc(CC)c1C1=C(OC(=O)OC)C2CC3(CC2C1=O)OC(C)CC(C)O3 (mixture of isomers) [I-c-24]
herbicidal effect against ALOMY (Alopecurus myosuroides) [1]: 100% | herbicidal effect against ECHCG (Echinochloa crus-galli) [2]: 100% | herbicidal effect against LOLMU (Lolium multiflorum) [3]: 100% | herbicidal effect against SETVI (Setaria viridis) [4]: 100% | herbicidal effect against AVEFA (Avena fatua) [6]: 80% | herbicidal effect ALOMY [7]: 90% | herbicidal effect ECHCG [8]: 70% | herbicidal effect LOLMU [9]: 100% | herbicidal effect SETVI [10]: 70%

CCc1cc(C)cc(CC)c1C1=C(OC(=O)C(C)(C)C)C2CC3(CC2C1=O)OCCCO3 (stereo not shown) [I-b-27]
herbicidal effect against ALOMY (Alopecurus myosuroides) [1]: 100% | herbicidal effect against ECHCG (Echinochloa crus-galli) [2]: 100% | herbicidal effect against LOLMU (Lolium multiflorum) [3]: 100% | herbicidal effect against SETVI (Setaria viridis) [4]: 100% | herbicidal effect AVEFA [5]: 70% | herbicidal effect against AVEFA (Avena fatua) [6]: 100% | herbicidal effect ECHCG [8]: 100% | herbicidal effect LOLMU [9]: 100% | herbicidal effect SETVI [10]: 70%

Cc1cc(C)c(C2=C(O)C3CC4(CC3C2=O)OCC=CCO4)c(C)c1 (stereo not shown) [I-a-41]
herbicidal effect against ALOMY (Alopecurus myosuroides) [1]: 100% | herbicidal effect against ECHCG (Echinochloa crus-galli) [2]: 90% | herbicidal effect against LOLMU (Lolium multiflorum) [3]: 100% | herbicidal effect against SETVI (Setaria viridis) [4]: 100% | herbicidal effect AVEFA [5]: 60% | herbicidal effect against AVEFA (Avena fatua) [6]: 40% | herbicidal effect ALOMY [7]: 60% | herbicidal effect ECHCG [8]: 50% | herbicidal effect LOLMU [9]: 100%

CCc1cc(C)cc(CC)c1C1=C(OC(=O)OC)C2CC3(CC2C1=O)OCCCO3 (stereo not shown) [I-c-35]
herbicidal effect against ALOMY (Alopecurus myosuroides) [1]: 100% | herbicidal effect against ECHCG (Echinochloa crus-galli) [2]: 100% | herbicidal effect against LOLMU (Lolium multiflorum) [3]: 100% | herbicidal effect against SETVI (Setaria viridis) [4]: 100% | herbicidal effect AVEFA [5]: 70% | herbicidal effect against AVEFA (Avena fatua) [6]: 100% | herbicidal effect ALOMY [7]: 80% | herbicidal effect LOLMU [9]: 100% | herbicidal effect SETVI [10]: 70%
